Results: patent US9115092B2, “Substituted quinazoline and pyrido-pyrimidine derivatives” (Asana Biosciences, LLC, priority 2010, dated 2015)

Tests used:
PC3 cells = assay: XTT assay for cell viability, PC3 cells; format: cell-based, human; conditions: Homo sapiens, PC-3, cell viability
Summary of the method: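 PC3 cells seeded at 1000 cells/well, grown 24 h, then exposed to serial dilutions of compound for 96 h. Viability read by XTT dye at 37° C, absorbance 465 nm. EC50 from sigmoidal dose-response fit.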

mTOR kinase = molecular target: T1, mTOR kinase (Homo sapiens, UniProt P42345); assay: mTOR kinase TR-FRET assay; format: biochemical; conditions: read-out: mTO R
T1 construct: purchased Millipore, USA
Summary of the method: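 TR-FRET read-out (340 nm excitation, 615/665 nm emission) of Thr389 phosphorylation of a ULight-labeled p70 S6K peptide (50 nM) by mTOR, 20 μM ATP, 60 min room temperature after 60 min compound preincubation. Buffer HEPES pH 7.5 with MnCl2, EGTA; IC50 by sigmoidal dose-response.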

[1] = tested on: pS6RP(S235/236), PC3 cells; assay: In-cell Western assay, pS6RP(S235/236) in PC3 cells; format: cell-based, human; conditions: Homo sapiens, PC-3, In-cell Western
Summary of the method: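 Overnight-seeded PC3 cells were treated 2 h with serially diluted compound, then fixed and immunostained with phospho-specific primary antibodies and Eu-labelled secondary. Time-resolved Eu signal read at 615 nm (ex 340 nm), normalised by Hoechst 33258 staining (ex 355/em 460 nm); IC50 from sigmoidal dose-response fit.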

[2] = molecular target: T2, PI3Kα (wild-type), P110/P85α (Homo sapiens, UniProt P42336); assay: PI3 Kinase TR-FRET assay, PI3Kα (wild-type); format: biochemical
T2 construct: made in house; host or cells: SF9 insect cells
Summary of the method: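 TR-FRET read-out of PIP3 formation via biotin-PIP3 displacement (665/615 nm ratio) gave IC50 curves. Enzyme: 5 ng wild-type P110/P85α from Sf9 cells, 60 min RT with compound and PIP2 (MgCl2 40 mM, DTT 5 mM), then 30 min RT kinase reaction at 10 μM ATP and 10 μM PIP2.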

T2 sequence (P42336 whole entry): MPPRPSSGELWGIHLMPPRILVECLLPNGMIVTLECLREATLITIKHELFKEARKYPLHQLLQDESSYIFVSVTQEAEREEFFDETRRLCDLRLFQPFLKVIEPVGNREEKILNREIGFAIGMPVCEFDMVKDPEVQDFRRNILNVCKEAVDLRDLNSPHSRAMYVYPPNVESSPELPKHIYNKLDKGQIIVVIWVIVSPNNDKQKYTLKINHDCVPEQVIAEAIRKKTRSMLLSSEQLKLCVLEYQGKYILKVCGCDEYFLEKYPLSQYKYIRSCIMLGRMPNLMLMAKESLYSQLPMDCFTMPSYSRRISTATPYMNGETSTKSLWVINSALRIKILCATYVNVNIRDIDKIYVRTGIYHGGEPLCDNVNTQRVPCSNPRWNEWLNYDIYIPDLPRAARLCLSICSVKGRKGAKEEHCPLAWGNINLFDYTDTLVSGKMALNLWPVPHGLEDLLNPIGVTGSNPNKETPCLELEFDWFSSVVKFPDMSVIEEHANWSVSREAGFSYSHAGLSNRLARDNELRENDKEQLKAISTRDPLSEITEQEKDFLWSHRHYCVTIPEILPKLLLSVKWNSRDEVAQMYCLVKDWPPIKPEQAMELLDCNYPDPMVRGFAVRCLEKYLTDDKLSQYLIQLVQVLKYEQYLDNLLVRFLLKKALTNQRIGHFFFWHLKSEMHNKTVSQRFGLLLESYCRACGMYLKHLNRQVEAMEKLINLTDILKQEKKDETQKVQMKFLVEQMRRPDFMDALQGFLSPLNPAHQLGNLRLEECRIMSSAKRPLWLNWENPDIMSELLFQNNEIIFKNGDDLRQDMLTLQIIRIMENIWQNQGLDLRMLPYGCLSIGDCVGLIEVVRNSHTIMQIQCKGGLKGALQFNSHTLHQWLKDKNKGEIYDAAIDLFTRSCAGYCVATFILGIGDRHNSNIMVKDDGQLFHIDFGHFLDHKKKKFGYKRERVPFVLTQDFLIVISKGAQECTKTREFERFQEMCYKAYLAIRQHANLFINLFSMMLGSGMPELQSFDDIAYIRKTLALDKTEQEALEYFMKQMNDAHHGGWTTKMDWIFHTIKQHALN
T2 sequence (P27986 whole entry partner): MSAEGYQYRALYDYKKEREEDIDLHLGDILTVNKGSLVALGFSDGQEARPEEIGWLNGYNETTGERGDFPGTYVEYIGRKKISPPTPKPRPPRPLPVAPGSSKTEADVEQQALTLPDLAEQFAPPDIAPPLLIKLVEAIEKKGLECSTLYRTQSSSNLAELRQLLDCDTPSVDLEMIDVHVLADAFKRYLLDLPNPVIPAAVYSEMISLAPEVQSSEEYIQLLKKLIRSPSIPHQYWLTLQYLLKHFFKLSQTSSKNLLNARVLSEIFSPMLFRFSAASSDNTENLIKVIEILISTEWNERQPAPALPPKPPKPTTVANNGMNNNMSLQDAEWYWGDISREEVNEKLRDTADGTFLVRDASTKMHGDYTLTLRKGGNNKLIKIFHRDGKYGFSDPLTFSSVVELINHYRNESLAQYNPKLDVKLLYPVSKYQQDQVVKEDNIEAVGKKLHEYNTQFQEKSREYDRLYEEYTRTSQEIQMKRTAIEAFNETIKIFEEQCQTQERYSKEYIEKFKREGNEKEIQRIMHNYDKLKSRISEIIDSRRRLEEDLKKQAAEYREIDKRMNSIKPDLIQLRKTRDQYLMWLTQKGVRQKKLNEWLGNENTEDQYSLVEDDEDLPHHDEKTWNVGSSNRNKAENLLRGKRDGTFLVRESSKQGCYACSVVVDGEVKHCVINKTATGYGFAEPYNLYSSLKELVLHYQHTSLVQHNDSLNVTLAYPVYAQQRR

SMILES	IC50 (PC3 cells) [nM]	IC50 (mTOR kinase) [nM]	IC50 [1] [nM]	IC50 [2] [nM]
Cc1ccc(-c2ccc3c(N4CCOCC4)nc(-c4ccc(NC(=O)Nc5ccc(C(=O)N6CCC(N(C)C)CC6)cc5)cc4)nc3c2)o1 [Example 191, 1-(4-(4-(dimethylamino)piperidine-1-carbonyl)phenyl)-3-(4-(7-(5-methylfuran-2-yl)-4-morpholino-quinazolin-2-yl)phenyl)urea]	201 to 10000	50 to 200	201 to 10000	201 to 10000
Cc1ccncc1-c1ccc2c(N3CCOCC3)nc(-c3ccc(NC(=O)Nc4ccc(C(=O)N5CCC(N(C)C)CC5)cc4)cc3)nc2c1 [Example 193, 1-(4-(4-(dimethylamino)piperidine-1-carbonyl)phenyl)-3-(4-(7-(4-methylpyridin-3-yl)-4-morpholino-quinazolin-2-yl)phenyl)urea]	201 to 10000	< 50	201 to 10000	< 50
N[C@H]1CCN(C(=O)c2ccc(NC(=O)Nc3ccc(-c4nc(N5CCOCC5)c5ccc(-c6cncnc6)cc5n4)cc3)cc2)C1 [Example 194, (S)-1-(4-(3-aminopyrrolidine-1-carbonyl)phenyl)-3-(4-(4-morpholino-7-(pyrimidin-5-yl)quinazolin-2-yl)phenyl)urea]	201 to 10000	< 50	201 to 10000	< 50
N[C@@H]1CCN(C(=O)c2ccc(NC(=O)Nc3ccc(-c4nc(N5CCOCC5)c5ccc(-c6cncnc6)cc5n4)cc3)cc2)C1 [Example 197, (R)-1-(4-(3-aminopyrrolidine-1-carbonyl)phenyl)-3-(4-(4-morpholino-7-(pyrimidin-5-yl)quinazolin-2-yl)phenyl)urea]	201 to 10000	< 50	201 to 10000	< 50
Cc1ccc(-c2ccc3c(N4CCOCC4)nc(-c4ccc(NC(=O)Nc5ccc(C(=O)NCCN(C)C)cc5)cc4)nc3c2)o1 [Example 201, N-(2-(dimethylamino)ethyl)-4-(3-(4-(7-(5-methylfuran-2-yl)-4-morpholino-quinazolin-2-yl)phenyl)ureido)-benzamide]	501 to 5000	< 50	501 to 5000	50 to 200
Cn1cc(-c2cnc3c(N4CCOCC4)nc(-c4ccc(NC(=O)Nc5ccc(C(N)=O)cc5)cc4)nc3c2)cn1 [Example 202, 4-(3-(4-(7-(1-methyl-1H-pyrazol-4-yl)-4-morpholino-pyrido[3,2-d]pyrimidin-2-yl)phenyl)ureido)-benzamide]	201 to 10000	< 50	201 to 10000	< 50
CN(C)C(=O)c1ccc(NC(=O)Nc2ccc(-c3nc(N4CCOCC4)c4ccc(-c5ccc(CO)o5)cc4n3)cc2F)cc1 [Example 203, 4-(3-(2-fluoro-4-(7-(5-(hydroxymethyl)furan-2-yl)-4-morpholino-quinazolin-2-yl)phenyl)ureido)-N,N-dimethyl-benzamide]	201 to 10000	< 50	201 to 10000	< 50
Cc1ccc(-c2ccc3c(N4CCOCC4)nc(-c4ccc(NC(=O)Nc5ccc(C(=O)N6CCC(O)C6)cc5)cc4)nc3c2)o1 (centres unmarked) [Example 204, 1-(4-(3-hydroxypyrrolidine-1-carbonyl)phenyl)-3-(4-(7-(5-methylfuran-2-yl)-4-morpholino-quinazolin-2-yl)phenyl)urea]	< 100	< 50	< 100	< 50
CN(C)[C@@H]1CCN(C(=O)c2ccc(NC(=O)Nc3ccc(-c4nc(N5CCOCC5)c5ncc(-c6cnn(C)c6)cc5n4)cc3F)cc2)C1 [Example 205, (R)-1-(4-(3-(dimethylamino)pyrrolidine-1-carbonyl)phenyl)-3-(2-fluoro-4-(7-(1-methyl-1H-pyrazol-4-yl)-4-morpholino-pyrido[3,2-d]pyrimidin-2-yl)phenyl)urea]	201 to 10000	< 50	201 to 10000	< 50
CC(O)c1ccc(-c2ccc3c(N4CCOCC4)nc(-c4ccc(NC(=O)Nc5ccc(C(=O)N(C)C)cc5)cc4)nc3c2)o1 (centres unmarked) [Example 206, 4-(3-(4-(7-(5-(1-hydroxyethyl)furan-2-yl)-4-morpholino-quinazolin-2-yl)phenyl)ureido)-N,N-dimethyl-benzamide]	201 to 10000	< 50	201 to 10000	< 50
CN1CCN(C(=O)c2ccc(NC(=O)Nc3ccc(-c4nc(N5CCOCC5)c5cc(F)c(-c6cccnc6)cc5n4)cc3F)cc2)CC1 [Example 211, 1-(2-fluoro-4-(6-fluoro-4-morpholino-7-(pyridin-3-yl)quinazolin-2-yl)phenyl)-3-(4-(4-methylpiperazine-1-carbonyl)phenyl)urea]	< 100	< 50	201 to 10000	< 50
CC(O)c1ccc(-c2ccc3c(N4CCOCC4)nc(-c4ccc(NC(=O)Nc5ccc(C(=O)N(C)C)cc5)c(F)c4)nc3c2)o1 (centres unmarked) [Example 214, 4-(3-(2-fluoro-4-(7-(5-(1-hydroxyethyl)furan-2-yl)-4-morpholino-quinazolin-2-yl)phenyl)ureido)-N,N-dimethyl-benzamide]	< 100	< 50	201 to 10000	< 50
CNC(=O)c1ccc(NC(=O)Nc2ccc(-c3nc(N4CCOCC4)c4ccc(-c5cncnc5)cc4n3)cc2F)cc1 [Example 215, 4-(3-(2-fluoro-4-(4-morpholino-7-(pyrimidin-5-yl)quinazolin-2-yl)phenyl)ureido)-N-methyl-benzamide]	201 to 10000	50 to 200	201 to 10000	50 to 200
CC(O)c1ccc(-c2cnc3c(N4CCOCC4)nc(-c4ccc(NC(=O)Nc5ccc(C(=O)N(C)C)cc5)cc4)nc3c2)o1 (centres unmarked) [Example 216, 4-(3-(4-(7-(5-(1-hydroxyethyl)furan-2-yl)-4-morpholino-pyrido[3,2-d]pyrimidin-2-yl)phenyl)ureido)-N,N-dimethyl-benzamide]	201 to 10000	< 50	201 to 10000	< 50
CN(C)CCNC(=O)c1ccc(NC(=O)Nc2ccc(-c3nc(N4CCOCC4)c4ccc(-c5cncnc5)cc4n3)cc2F)cc1 [Example 217, N-(2-(dimethylamino)ethyl)-4-(3-(2-fluoro-4-(4-morpholino-7-(pyrimidin-5-yl)quinazolin-2-yl)phenyl)ureido)-benzamide]	201 to 10000	< 50	201 to 10000	< 50
CN(C)C(=O)c1ccc(NC(=O)Nc2ccc(-c3nc(N4CCOCC4)c4ccc(-c5ccc(C(C)(C)O)o5)cc4n3)cc2)cc1 [Example 222, 4-(3-(4-(7-(5-(2-hydroxypropan-2-yl)furan-2-yl)-4-morpholino-quinazolin-2-yl)phenyl)ureido)-N,N-dimethyl-benzamide]	201 to 10000	< 50	201 to 10000	< 50
CN(C)C(=O)c1ccc(NC(=O)Nc2ccc(-c3nc(N4CCOCC4)c4ccc(-c5ccc(C#N)o5)cc4n3)cc2)cc1 [Example 223, 4-(3-(4-(7-(5-cyanofuran-2-yl)-4-morpholino-quinazolin-2-yl)phenyl)ureido)-N,N-dimethyl-benzamide]	201 to 10000	< 50	201 to 10000	< 50
